Drawing on patent US8580811B2 (Ligand Pharmaceuticals Incorporated, priority 2005, dated 2013), this text covers Ki for 21 compounds.

Molecules are shown by their SMILES.

A word on the Ki: it is the equilibrium dissociation constant of an inhibitor or competing ligand from its target. Read a high Ki as weaker binding.

The test has as its target T1, human AR (Homo sapiens, UniProt P10275).
T1 construct: expressed in transfected cells; host or cells: COS-1 cells
T1 sequence (P10275 1-920): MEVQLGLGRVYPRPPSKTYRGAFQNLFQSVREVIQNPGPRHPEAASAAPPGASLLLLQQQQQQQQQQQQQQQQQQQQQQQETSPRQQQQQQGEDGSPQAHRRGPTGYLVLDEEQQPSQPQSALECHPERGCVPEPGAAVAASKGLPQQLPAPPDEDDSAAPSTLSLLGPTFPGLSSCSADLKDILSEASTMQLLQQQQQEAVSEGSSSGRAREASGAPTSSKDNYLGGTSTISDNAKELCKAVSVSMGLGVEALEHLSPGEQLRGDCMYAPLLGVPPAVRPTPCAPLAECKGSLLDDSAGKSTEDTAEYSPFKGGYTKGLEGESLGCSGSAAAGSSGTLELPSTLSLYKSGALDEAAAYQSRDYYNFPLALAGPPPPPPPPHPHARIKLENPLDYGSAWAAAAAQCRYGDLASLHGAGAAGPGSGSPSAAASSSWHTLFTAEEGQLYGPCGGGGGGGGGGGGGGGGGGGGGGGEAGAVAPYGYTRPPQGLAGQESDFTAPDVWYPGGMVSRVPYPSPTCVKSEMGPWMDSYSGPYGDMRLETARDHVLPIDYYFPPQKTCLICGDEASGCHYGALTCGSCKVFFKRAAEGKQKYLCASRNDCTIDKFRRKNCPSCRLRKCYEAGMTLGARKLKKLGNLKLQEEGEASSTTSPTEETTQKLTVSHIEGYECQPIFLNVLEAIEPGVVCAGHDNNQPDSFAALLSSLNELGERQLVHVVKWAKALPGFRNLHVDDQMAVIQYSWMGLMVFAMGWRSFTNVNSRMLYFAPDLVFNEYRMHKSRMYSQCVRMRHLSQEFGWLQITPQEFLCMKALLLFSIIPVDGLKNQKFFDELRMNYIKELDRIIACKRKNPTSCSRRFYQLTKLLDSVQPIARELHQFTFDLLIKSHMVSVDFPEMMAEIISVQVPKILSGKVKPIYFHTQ
Kind of test: IR Binding Assay: whole cell competitive binding of test compounds against 3H-DHT in COS-1 cells transfected with pRShAR. The essentials: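 COS-1 cells transfected with pRShAR plus β-Gal reporter, serum-starved 24 h, then exposed to 1 nM ³H-DHT with compounds at 10^−10 to 10^−6 M for 3 h at 37 °C. Bound ³H-DHT counted in lysates, normalized to β-Gal. IC50 from log-logit plot; Ki via Cheng-Prusoff using Kd from Scatchard saturation analysis.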
`Cc1c(-c2ccco2)n(C[C@H](O)C(F)(F)F)c2ccc3[nH]c(=O)cc(Cl)c3c12` [Compound 277, (S)-9-Chloro-2-(2-furyl)-1-methyl-3-(3,3,3-trifluoro-2-hydroxy-propyl)-3,6-dihydro-pyrrolo[3,2-f]quinolin-7-one] displayed a Ki below 5 nM.
In the case of `Cc1c(C)n(C[C@@H](O)C(F)(F)F)c2ccc3[nH]c(=O)cc(Cl)c3c12` [Compound 278, (R)-9-Chloro-1,2-dimethyl-3-(3,3,3-trifluoro-2-hydroxy-propyl)-3,6-dihydro-pyrrolo[3,2-f]-quinolin-7-one], the Ki is below 5 nM.
Under `Cc1c(-c2ccccc2)n(C[C@@H](O)C(F)(F)F)c2ccc3[nH]c(=O)cc(Cl)c3c12` [Compound 280, 9-Chloro-1-methyl-2-phenyl-3-(3,3,3-trifluoro-2-hydroxy-propyl)-3,6-dihydro-pyrrolo[3,2-f]quinolin-7-one] stands above 10 nM.
In the case of `CCc1c(C)c2c3c(Cl)cc(=O)[nH]c3ccc2n1C[C@@H](O)C(F)(F)F` [Compound 281, (R)-9-Chloro-2-ethyl-1-methyl-3-(3,3,3-trifluoro-2-hydroxy-propyl)-3,6-dihydro-pyrrolo[3,2-f]quinolin-7-one], the Ki was below 5 nM.
`Cc1c(-c2cccs2)n(C[C@@H](O)C(F)(F)F)c2ccc3[nH]c(=O)cc(Cl)c3c12` [Compound 282, (R)-9-Chloro-1-methyl-2-thiophen-2-yl-3-(3,3,3-trifluoro-2-hydroxy-propyl)-3,6-dihydro-pyrrolo[3,2-f]quinolin-7-one] came in with an inhibitory constant (Ki) below 5 nM.
Under `Cc1c(-c2ccncc2)n(C[C@@H](O)C(F)(F)F)c2ccc3[nH]c(=O)cc(Cl)c3c12` [Compound 283, (R)-9-Chloro-1-methyl-2-(4-pyridyl)-3-(3,3,3-trifluoro-2-hydroxy-propyl)-3,6-dihydro-pyrrolo[3,2-f]quinolin-7-one] stands 5 to 10 nM.
For `Cc1ccc(-c2c(C)c3c4c(Cl)cc(=O)[nH]c4ccc3n2C[C@@H](O)C(F)(F)F)o1` [Compound 284, (R)-9-Chloro-1-methyl-2-(5-methylfuran-2-yl)-3-(3,3,3-trifluoro-2-hydroxy-propyl)-3,6-dihydro-pyrrolo[3,2-f]quinolin-7-one], the inhibitory constant (Ki) is below 5 nM.
Under `Cc1ccc(-c2c(C)c3c4c(Cl)cc(=O)[nH]c4ccc3n2C[C@@H](O)C(F)(F)F)s1` [Compound 285, (R)-9-Chloro-1-methyl-2-(5-methylthiophen-2-yl)-3-(3,3,3-trifluoro-2-hydroxy-propyl)-3,6-dihydro-pyrrolo[3,2-f]quinolin-7-one] stands below 5 nM.
The compound `CCc1c(C)c2c3c(C(F)(F)F)cc(=O)[nH]c3ccc2n1CCCO` [Compound 286] displayed an inhibition constant Ki below 5 nM.
Under `Cc1c(C)n(CCCO)c2ccc3[nH]c(=O)cc(Cl)c3c12` [Compound 287, 9-Chloro-1,2-dimethyl-3-(3-hydroxypropyl)-3,6-dihydro-pyrrolo[3,2-f]quinolin-7-one] stands above 10 nM.
The compound `Cc1c(C)n(CCCBr)c2ccc3[nH]c(=O)cc(C(F)(F)F)c3c12` [Compound 288, 3-(3-Bromopropyl)-1,2-dimethyl-9-trifluoromethyl-3,6-dihydro-pyrrolo[3,2-f]-quinolin-7-one] displayed an inhibition constant (Ki) below 5 nM.
Under `Cc1c(C)n(CCCNCCO)c2ccc3[nH]c(=O)cc(C(F)(F)F)c3c12` [Compound 289, 1,2-Dimethyl-3-[3-(2-hydroxy-ethylamino)-propyl]-9-trifluoromethyl-3,6-dihydro-pyrrolo[3,2-f]quinolin-7-one] stands above 10 nM.
Under `Cc1c(C)n(CC(O)CO)c2ccc3[nH]c(=O)cc(Cl)c3c12` (stereo not drawn) [Compound 290, 9-Chloro-3-(2,3-dihydroxypropyl)-1,2-dimethyl-3,6-dihydro-pyrrolo[3,2-f]-quinolin-7-one] stands above 10 nM.
Under `Cc1c(C)n(C[C@H](O)CO)c2ccc3[nH]c(=O)cc(Cl)c3c12` [Compound 291, (S)-9-Chloro-3-(2,3-dihydroxypropyl)-1,2-dimethyl-3,6-dihydro-pyrrolo[3,2-f]-quinolin-7-one] stands above 10 nM.
The compound `Cc1c(C)n(C[C@@H](O)CO)c2ccc3[nH]c(=O)cc(Cl)c3c12` [Compound 292, (R)-9-Chloro-3-(2,3-dihydroxypropyl)-1,2-dimethyl-3,6-dihydro-pyrrolo[3,2-f]-quinolin-7-one] gave a Ki above 10 nM.
Under `Cc1c(C)n(CC(O)CO)c2ccc3[nH]c(=O)cc(C(F)(F)F)c3c12` (stereo not drawn) [Compound 293, 3-(2,3-dihydroxypropyl)-1,2-dimethyl-9-trifluoromethyl-3,6-dihydro-pyrrolo[3,2-f]-quinolin-7-one] stands above 10 nM; under `Cc1c(C)n(CC(O)CCl)c2ccc3[nH]c(=O)cc(C(F)(F)F)c3c12` (stereo not drawn) [Compound 294, 3-(3-chloro-2-hydroxypropyl)-1,2-dimethyl-9-trifluoromethyl-3,6-dihydro-pyrrolo[3,2-f]-quinolin-7-one], below 5 nM.
Under `Cc1c(C)n(C[C@H](O)CO)c2ccc3[nH]c(=O)cc(C(F)(F)F)c3c12` [Compound 295, (S)-3-(2,3-dihydroxypropyl)-1,2-dimethyl-9-trifluoromethyl-3,6-dihydro-pyrrolo[3,2-f]-quinolin-7-one] stands above 10 nM.
Compound `Cc1c(C)n(C[C@@H](O)CO)c2ccc3[nH]c(=O)cc(C(F)(F)F)c3c12` [Compound 296, (R)-3-(2,3-dihydroxypropyl)-1,2-dimethyl-9-trifluoromethyl-3,6-dihydro-pyrrolo[3,2-f]-quinolin-7-one] came in with an inhibition constant Ki above 10 nM.
With `CCc1c(C)c2c3c(Cl)cc(=O)[nH]c3ccc2n1CC(O)CO` (stereo not drawn) [Compound 297, 9-Chloro-3-(2,3-dihydroxypropyl)-2-ethyl-1-methyl-3,6-dihydro-pyrrolo[3,2-f]-quinolin-7-one], the inhibition constant Ki is above 10 nM.
Under `Cc1c(C)n(CCOCCOCCO)c2ccc3[nH]c(=O)cc(C(F)(F)F)c3c12` [Compound 298, 3-{2-[2-(2-Hydroxy-ethoxy)-ethoxy]-ethyl}-1,2-dimethyl-9-trifluoromethyl-3,6-dihydro-pyrrolo[3,2-f]quinolin-7-one] stands above 10 nM.
